From patent US12410064B2, “Preparation of soluble compounds” (EXCITON PHARMA CORP., priority 2019, dated 2025) come the findings set out here.

Where “and” joins values, the source holds several entries; their conditions need not be identical. Equal values may be shown once.

Data set [1] in a line: Acid-base titration curve (equivalence points). The format is physicochemical. The following applies: FIG. 1, inflection points of the curve; listed as JN300118-1. The source says:
In the various embodiments, sufficient concentrations of the acid or base to transform the first oxidized metal complex into the desired second oxidized metal complex may be determined using acid-base titration. As used herein, the term “acid-base titration” refers to a method of quantitative analysis for determining the concentration of an acid or base by exactly neutralizing it with a standard solution of base or acid having known concentration. A pH indicator may be used to monitor the progress of the acid-base reaction. An acid-base titration curve may be plotted on a graph to show the changes in the pH upon addition of acid or base. As shown for example in FIG. 1, the curve falls near equivalence points (inflection points of the curve). The quantity of acid or base required to reach each equivalence point (e.g., FIG. 1, pH 11.3, 5.7) may be identified from the graph.
At each equivalence point or corresponding pH, the first oxidized metal complex may be transformed into a different second oxidized metal complex. […]

Data set [2] relates to Staphylococcus aureus biofilms. Nature of the data set: S. aureus antibiofilm assay (log-reduction vs no treatment control). The format is cell-based.
Protocol: Briefly, S. aureus biofilms were grown on sterile gauze at 37° C. for 72 hours (gauze was re-inoculated with S. aureus at 24 hours and 48 hours). After incubation, the gauze was rinsed with sterile water and placed onto Mueller Hinton agar (MHA) plates. The compound was dissolved in aqueous (RO water) solution at a concentration of 0.4 mg Ag/cm^2 or 10 mg Ag per 5×5 cm testing and placed on top of the gauze. The plates were incubated for 6 hours at 37° C. The remaining solution containing metal complexes was removed from the biofilm and the biofilm/gauze was neutralized in 10 mL of sodium thioglycolate. The bacteria were agitated to remove them from the gauze and the resulting bacterial suspensions were diluted and spread onto MHA plates which were incubated for 18-24 hours at 37° C. and the resulting viable bacterial colonies were enumerated. The log-reduction of S. aureus was calculated relative to the reduction achieved in the “no treatment” negative control samples. Results represent the average of triplicate data. The assay was repeated upon the aged solid state at a shelf life of 5 months (FIGS. 4A-B).
Data set [3] in a line: Solid state stability under ambient conditions, analysed by UV-Vis spectroscopy. To be noted: room temperature, ambient air and light, five months. The format is physicochemical. The method, then:
Stability evaluation of each compound in its solid state stored under ambient conditions was performed.

Where [4] appears, read: S. aureus biofilm on gauze, 0.4 mg Ag/cm^2 in RO water, 6 hours at 37° C.

With K4-1H1-4Ag(IO5OH)2O [JN301118-1], the “equivalence point of acid-base titration curve” value in data set [1] was 11.3 pH and 5.7 pH.
Consider “Sodium diperiodatoargentate Na5Ag(IO5OH)216H2O [JN091118-2, reference compound]”, for which the antimicrobial activity entry in data set [2] (S. aureus biofilm as Example 2, but semi-solid formulation (about 0.083 g) dissolved into RO water (1 mL), 0.4 mg Ag/cm^2) is reported as “Atkinson, antimicrobial activity, yield”.
On to “diperiodatoargentate potassium salt [JN300518-2a]”, for which, in data set [3], the solid state stability result is “bright red crystals, solid state stability,”.
With K5-3H0-2Ag(IO5OH)2 [JN150618-3], the antimicrobial activity result in data set [2] (setting [4]) is given as “bright red crystals, antimicrobial activity”.
On the same count and under the same terms, for `[Ag+].[Ag+].[Ag+].[Ag+].[Ag+].[O-][I+]([O-])([O-])([O-])([O-])[O-]` [JN111018-3, Pentasilver periodate, reference compound] the value was “antimicrobial activity, yield”.
